According to US20250084080A1, “CRYSTALLINE AND SALT FORMS OF AN NLRP3 INHIBITOR” (BioAge Labs, Inc., priority 2023, published 2025):

Experiments:
Assay type in all cases: physicochemical
[1] = Bulk stability (solid state, 1 week; HPLC, XRPD, IC, color); parameters: key to CL (color): A: no change of color; B: slight discoloration; C: medium discoloration; D: strong discoloration; details: for Bulk (HPLC) Purity / Bulk (XRPD) / CL (color): Solid state
Experimental: Bulk stability of free form Pattern B was evaluated at 25° C./92.5% RH in an open container, at 40° C./75% RH in an open container and at 60° C. in a tight container over 1 week.

[2] = Hygroscopicity by dynamic vapor sorption (DVS) at 25° C.; details: for Desorp. (%) / Sorp. (%): DVS 25° C.
Experimental: Dynamic vapor sorption (DVS) was performed on an Intrinsic, Advantage or Adventure with an oven temperature of 25° C. using water as a solvent. The sample mass was about 5-10 mg using the following method: • Cycle: 40-0-95-0-40% RH • Stage Step: 10% • Equilibrium: 0.002 dm/dt (%/min) • Minimum dm/dt stability duration: 60 min • Maximum dm/dt stage time: 360 min. Hygroscopicity of free form Pattern B was evaluated by dynamic vapor sorption (DVS) test at 25° C. […] It absorbed about 0.8% water at 80% RH at 25° C.

[3] = Solubility at 37° C. in buffers and biorelevant media, XRPD of residual solid; details: for solubility at 2 h / solubility at 24 h: thermodynamic from solid
Experimental: Solubility of BAL-0748 free form Pattern B was investigated in pH 1.2 HCl buffer, pH 4.5 50 mM acetate buffer, pH 6.8 50 mM phosphate buffer, water, pH 1.6 FaSSGF, pH 6.5 FaSSIF-v1, pH 5.0 FeSSIF-v1 and 2% HPMC+1% Pluronic F68 in pH 4.5 50 mM acetate buffer at 37° C. for 2 h and 24 h. Residual solids after the solubility test were analyzed by XRPD.
Solubility of the free form Pattern A, the HCl salt Pattern A, the phosphate salt Pattern A, and the sodium salt Pattern A was measured in pH 1.2 HCl buffer, pH 4.5 acetate buffer (50 mM), pH 6.8 phosphate buffer (50 mM), water, pH 1.6 FaSSGF, pH 6.5 FaSSIF-v1, pH 5.0 FeSSIF-v1, and 2% HPMC+1% Pluronic F68 in pH 4.5 acetate buffer (50 mM) at 37° C. for 2 hours and 24 hours.
10.4 mg of the free form Pattern A, 10.0 mg of the free form Pattern B, 10.8 mg of the HCl salt Pattern A, 12.2 mg of the phosphate salt Pattern A, or 10.5 mg of the sodium salt Pattern A was weighed into a 20 mL glass vial, respectively. 5 mL of solubility medium was added. The salt amount used was equivalent to 10 mg anhydrous free form. Obtained suspensions were stirred at 37° C. at 400 rpm and sampled at 2 hours and at 24 hours. The samples were centrifuged at 37° C. at 14,000 rpm for 5 min. Supernatants were analyzed by HPLC and PH meter for solubility and pH value, respectively. Residual solids (wet cakes) from the 24 hours samples were also characterized by XRPD to determine physical form.

[4] = 25° C./92.5% RH open, 40° C./75% RH open, 60° C. tight container
[5] = aqueous buffer, pH 4.5 acetate buffer (50 mM), 37° C.
[6] = aqueous buffer, pH 6.8 phosphate buffer (50 mM), 37° C.
[7] = aqueous with cosolvent or surfactant or cyclodextrin, 2% HPMC + 1% Pluronic F68 in pH 4.5 acetate buffer (50 mM), 37° C.
[8] = fassgf or other biorelevant, FaSSGF, pH 1.6, 37° C.
[9] = simulated gastric fluid, pH 1.2 HCl buffer, 37° C.

CCOc1cc(C(=O)N(C)Cc2cnc(CO)c3cn[nH]c23)ccc1-c1cc(F)cc(F)c1.O=P(O)(O)O [Phosphate salt Pattern A, 2-ethoxy-3′,5′-difluoro-N-((4-(hydroxymethyl)-1H-pyrazolo[4,3-c]pyridin-7-yl)methyl)-N-methyl-[1,1′-biphenyl]-4-carboxamide phosphoric acid salt]
Bulk stability, chemical and physical [1, 4]: chemically and physically stable | Degradation by HPLC [1, 4]: no obvious degradation | Form change by XRPD [1, 4]: no form change | Bulk (HPLC) Purity ([1]; 25° C./92.5% RH, open): 98.2% | Bulk (XRPD) ([1]; 25° C./92.5% RH, open): No form change | CL (color) ([1]; 25° C./92.5% RH, open): A | Bulk (HPLC) Purity ([1]; 40° C./75% RH, open): 98.2% | Bulk (XRPD) ([1]; 40° C./75% RH, open): No form change | CL (color) ([1]; 40° C./75% RH, open): A | Bulk (HPLC) Purity ([1]; 60° C., closed): 98.2% | Bulk (XRPD) ([1]; 60° C., closed): No form change | CL (color) ([1]; 60° C., closed): A | Desorp. (%) ([2]; 0% RH, 1st desorption): 0.03% | Sorp. (%) ([2]; 0% RH, 1st sorption): 0.03% | Desorp. (%) ([2]; 0% RH, 2nd desorption): 0.00% | Sorp. (%) ([2]; 0% RH, 2nd sorption): 0.00% | Desorp. (%) ([2]; 10% RH, 1st desorption): 0.12% | Sorp. (%) ([2]; 10% RH, 1st sorption): 0.11% | Desorp. (%) ([2]; 10% RH, 2nd desorption): 0.09% | Sorp. (%) ([2]; 10% RH, 2nd sorption): 0.09% | Desorp. (%) ([2]; 20% RH, 1st desorption): 0.16% | Sorp. (%) ([2]; 20% RH, 1st sorption): 0.15% | Desorp. (%) ([2]; 20% RH, 2nd desorption): 0.14% | Sorp. (%) ([2]; 20% RH, 2nd sorption): 0.13% | Desorp. (%) ([2]; 30% RH, 1st desorption): 0.20% | Sorp. (%) ([2]; 30% RH, 1st sorption): 0.18% | Desorp. (%) ([2]; 30% RH, 2nd desorption): 0.18% | Sorp. (%) ([2]; 30% RH, 2nd sorption): 0.17% | Desorp. (%) ([2]; 40% RH, 1st desorption): 0.24% | Sorp. (%) ([2]; 40% RH, 1st sorption): 0.23% | Desorp. (%) ([2]; 40% RH, 2nd desorption): 0.23% | Sorp. (%) ([2]; 40% RH, 2nd sorption): 0.21% | Sorp. (%) ([2]; 50% RH, 1st sorption): 0.27% | Desorp. (%) ([2]; 50% RH, 2nd desorption): 0.29% | Sorp. (%) ([2]; 60% RH, 1st sorption): 0.32% | Desorp. (%) ([2]; 60% RH, 2nd desorption): 0.35% | Sorp. (%) ([2]; 70% RH, 1st sorption): 0.37% | Desorp. (%) ([2]; 70% RH, 2nd desorption): 0.41% | Sorp. (%) ([2]; 80% RH, 1st sorption): 0.45% | Desorp. (%) ([2]; 80% RH, 2nd desorption): 0.48% | Sorp. (%) ([2]; 90% RH, 1st sorption): 0.61% | Desorp. (%) ([2]; 90% RH, 2nd desorption): 0.63% | Sorp. (%) ([2]; 95% RH, 1st sorption): 0.82% | Desorp. (%) ([2]; 95% RH, 2nd desorption): 0.82% | XRPD after DVS test ([2]; DVS at 25° C.): No form change | Water absorbed at 80% RH ([2]; DVS at 25° C., 80% RH): It absorbed 0.5% | pH of supernatant at 24 h ([3]; 2% HPMC + 1% Pluronic F68 in pH 4.5 acetate buffer (50 mM), 37° C.): (4.5) | Solubility compared with the free form Pattern A ([3]; 2% HPMC+1% Pluronic F68 in acetate buffer (pH 4.5)): comparable solubility | pH of supernatant at 24 h ([3]; FaSSGF, pH 1.6, 37° C.): (1.6) | pH of supernatant at 24 h ([3]; FaSSIF-v1, pH 6.5, 37° C.): (6.2) | pH of supernatant at 24 h ([3]; FeSSIF-v1, pH 5.0, 37° C.): (4.9) | pH of supernatant at 24 h ([3]; Water, 37° C.): (2.6) | solubility at 2 h [3, 5]: 9.4 µg/mL | solubility at 24 h [3, 5]: 11.8 µg/mL | solubility at 2 h [3, 6]: 2.4 µg/mL | solubility at 24 h [3, 6]: 2.9 µg/mL | solubility at 2 h [3, 7]: 16.4 µg/mL | solubility at 24 h [3, 7]: 17.9 µg/mL | solubility at 2 h [3, 8]: 710 µg/mL | solubility at 24 h [3, 8]: 653 µg/mL | pH of supernatant at 24 h ([3]; pH 1.2 HCl buffer, 37° C.): (1.2) | pH of supernatant at 24 h ([3]; pH 4.5 acetate buffer (50 mM), 37° C.): (4.4) | pH of supernatant at 24 h ([3]; pH 6.8 phosphate buffer (50 mM), 37° C.): (6.7) | Solubility compared with the free form Pattern A ([3]; pure water): obviously higher solubility | solubility at 2 h [3, 9]: 402 µg/mL | solubility at 24 h [3, 9]: 390 µg/mL | solubility at 2 h ([3]; FaSSIF-v1, pH 6.5, 37° C.): 8.4 µg/mL | solubility at 24 h ([3]; FaSSIF-v1, pH 6.5, 37° C.): 13.7 µg/mL | solubility at 2 h ([3]; FeSSIF-v1, pH 5.0, 37° C.): 140 µg/mL | solubility at 24 h ([3]; FeSSIF-v1, pH 5.0, 37° C.): 159 µg/mL | solubility at 2 h ([3]; Water, 37° C.): 384 µg/mL | solubility at 24 h ([3]; Water, 37° C.): 442 µg/mL
